pIC50: −log10 of the molar value.
System: 556581-035-R-J1 tumor spheroid viability, % test/control
Test: Anticancer human tumor 556581-035-R-J1 patient-derived ovarian carcinoma cell line growth inhibition
Conditions: spheroids with HUVEC and MSC; for pIC50: curve of first compound; for viability, T/C: stronger effect = lower value
Outline: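 Complex spheroids of malignant cells with endothelial cells and mesenchymal stem cells; agents alone or combined, from near clinical Cmax (or 10 microM if unknown) down in half-log steps, 0.25% DMSO final.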

[1] = second compound 1 µM, first compound 0.0316 µM
[2] = second compound 1 µM, first compound 0.1 µM
[3] = second compound 1 µM, first compound 0.316 µM
[4] = second compound 1 µM, first compound 1 µM
[5] = second compound 1 µM, first compound 3.16 µM
[6] = second compound 1 µM, first compound 10 µM
[7] = second compound 3.16 µM, first compound 0.0316 µM
[8] = second compound 3.16 µM, first compound 0.1 µM
[9] = second compound 3.16 µM, first compound 0.316 µM
[10] = second compound 3.16 µM, first compound 1 µM
[11] = second compound 3.16 µM, first compound 3.16 µM
[12] = second compound 3.16 µM, first compound 10 µM
[13] = second compound 10 µM, first compound 0.0316 µM
[14] = second compound 10 µM, first compound 0.1 µM
[15] = second compound 10 µM, first compound 0.316 µM
[16] = second compound 10 µM, first compound 1 µM
[17] = second compound 10 µM, first compound 3.16 µM
[18] = second compound 10 µM, first compound 10 µM
[19] = second compound 31.6 µM, first compound 0.0316 µM
[20] = second compound 31.6 µM, first compound 0.1 µM
[21] = second compound 31.6 µM, first compound 0.316 µM
[22] = second compound 31.6 µM, first compound 1 µM
[23] = second compound 31.6 µM, first compound 3.16 µM
[24] = second compound 31.6 µM, first compound 10 µM
[25] = second compound 100 µM, first compound 0.0316 µM
[26] = second compound 100 µM, first compound 0.1 µM
[27] = second compound 100 µM, first compound 0.316 µM
[28] = second compound 100 µM, first compound 1 µM
[29] = second compound 100 µM, first compound 3.16 µM
[30] = second compound 100 µM, first compound 10 µM
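Also: spheroids exposed to compounds for 7 days before viability read.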

SMILES | pIC50 (second compound 1 µM) | pIC50 (second compound 3.16 µM) | pIC50 (second compound 10 µM) | pIC50 (second compound 31.6 µM) | pIC50 (second compound 100 µM) | viability, T/C [1] [%] | viability, T/C [2] [%] | viability, T/C [3] [%] | viability, T/C [4] [%] | viability, T/C [5] [%] | viability, T/C [6] [%] | viability, T/C [7] [%] | viability, T/C [8] [%] | viability, T/C [9] [%] | viability, T/C [10] [%] | viability, T/C [11] [%] | viability, T/C [12] [%] | viability, T/C [13] [%] | viability, T/C [14] [%] | viability, T/C [15] [%] | other results
CC1COCCN1c1cc(-c2ccnn2C)c2ccnc(-c3ccn[nH]3)c2n1 (stereo not given) + Cn1nnc2c(C(N)=O)ncn2c1=O | 6.25 | 6.23 | 6.17 | 6.22 | 6.41 | 93.7 | 69.3 | 56.3 | 43.7 | 39.9 | 33 | 90.6 | 72.5 | 56.4 | 44.2 | 37.8 | 32.5 | 86.8 | 71 | 56 | viability, T/C [16]: 45.9%; viability, T/C [17]: 40%; viability, T/C [18]: 31.2%; viability, T/C [19]: 88.9%; viability, T/C [20]: 71.6%; viability, T/C [21]: 54.6%; viability, T/C [22]: 45.8%; viability, T/C [23]: 39.1%; viability, T/C [24]: 33.4%; viability, T/C [25]: 82.8%; viability, T/C [26]: 63.8%; viability, T/C [27]: 51.7%; viability, T/C [28]: 42.8%; viability, T/C [29]: 38.1%; viability, T/C [30]: 32.8%
COc1cc(C)[nH]c(=O)c1CN1CCc2c(Cl)cc(C(OC)C3COC3)c(Cl)c2C1=O (stereo not given) + Cn1nnc2c(C(N)=O)ncn2c1=O | < 5.00 | < 5.00 | < 5.00 | < 5.00 | < 5.00 | 105 | 102 | 117 | 109 | 107 | 102 | 99.3 | 113 | 100 | 107 | 105 | 105 | 105 | 106 | 106 | viability, T/C [16]: 112%; viability, T/C [17]: 111%; viability, T/C [18]: 104%; viability, T/C [19]: 115%; viability, T/C [20]: 118%; viability, T/C [21]: 110%; viability, T/C [22]: 107%; viability, T/C [23]: 108%; viability, T/C [24]: 108%; viability, T/C [25]: 112%; viability, T/C [26]: 107%; viability, T/C [27]: 106%; viability, T/C [28]: 115%; viability, T/C [29]: 114%; viability, T/C [30]: 103%
Cc1cc(C)c(CNC(=O)c2cc(-c3ccc(CN4CCOCC4)cc3)cc3c2cnn3C2CCCC2)c(=O)[nH]1 + Cn1nnc2c(C(N)=O)ncn2c1=O | < 5.00 | < 5.00 | < 5.00 | < 5.00 | < 5.00 | 105 | 107 | 110 | 103 | 110 | 88 | 107 | 108 | 112 | 108 | 108 | 88.2 | 118 | 118 | 111 | viability, T/C [16]: 121%; viability, T/C [17]: 114%; viability, T/C [18]: 93.6%; viability, T/C [19]: 115%; viability, T/C [20]: 105%; viability, T/C [21]: 116%; viability, T/C [22]: 108%; viability, T/C [23]: 110%; viability, T/C [24]: 86.1%; viability, T/C [25]: 113%; viability, T/C [26]: 116%; viability, T/C [27]: 107%; viability, T/C [28]: 122%; viability, T/C [29]: 109%; viability, T/C [30]: 84.8%
[2H]c1nc(C)nc([2H])c1-c1cc(NC[C@@H](C)c2cccc3c(C(=O)NC)ccnc23)ncn1 + Cn1nnc2c(C(N)=O)ncn2c1=O | < 5.00 | < 5.00 | < 5.00 | < 5.00 | < 5.00 | 111 | 111 | 106 | 112 | 108 | 112 | 98.7 | 104 | 106 | 115 | 119 | 113 | 105 | 103 | 115 | viability, T/C [16]: 112%; viability, T/C [17]: 113%; viability, T/C [18]: 115%; viability, T/C [19]: 116%; viability, T/C [20]: 109%; viability, T/C [21]: 115%; viability, T/C [22]: 119%; viability, T/C [23]: 116%; viability, T/C [24]: 112%; viability, T/C [25]: 115%; viability, T/C [26]: 114%; viability, T/C [27]: 116%; viability, T/C [28]: 114%; viability, T/C [29]: 108%; viability, T/C [30]: 114%
